Reference: patent US20210177814A1, “USE OF GUANABENZ OR DERIVATES THEREOF FOR THE TREATMENT OF TYPE I IFN-DEPENDENT PATHOLOGIES” (INSERM (Institut National de la Santé et de la Recherche …, priority 2018, published 2021)

Target: T1, hTLR7 (Homo sapiens, UniProt Q9NYK1)
T1 construct: expressed in transfected cells; host or cells: HEK-Blue (HEK 293) hTLR7 reporter cells
T1 sequence (Q9NYK1 27-1049): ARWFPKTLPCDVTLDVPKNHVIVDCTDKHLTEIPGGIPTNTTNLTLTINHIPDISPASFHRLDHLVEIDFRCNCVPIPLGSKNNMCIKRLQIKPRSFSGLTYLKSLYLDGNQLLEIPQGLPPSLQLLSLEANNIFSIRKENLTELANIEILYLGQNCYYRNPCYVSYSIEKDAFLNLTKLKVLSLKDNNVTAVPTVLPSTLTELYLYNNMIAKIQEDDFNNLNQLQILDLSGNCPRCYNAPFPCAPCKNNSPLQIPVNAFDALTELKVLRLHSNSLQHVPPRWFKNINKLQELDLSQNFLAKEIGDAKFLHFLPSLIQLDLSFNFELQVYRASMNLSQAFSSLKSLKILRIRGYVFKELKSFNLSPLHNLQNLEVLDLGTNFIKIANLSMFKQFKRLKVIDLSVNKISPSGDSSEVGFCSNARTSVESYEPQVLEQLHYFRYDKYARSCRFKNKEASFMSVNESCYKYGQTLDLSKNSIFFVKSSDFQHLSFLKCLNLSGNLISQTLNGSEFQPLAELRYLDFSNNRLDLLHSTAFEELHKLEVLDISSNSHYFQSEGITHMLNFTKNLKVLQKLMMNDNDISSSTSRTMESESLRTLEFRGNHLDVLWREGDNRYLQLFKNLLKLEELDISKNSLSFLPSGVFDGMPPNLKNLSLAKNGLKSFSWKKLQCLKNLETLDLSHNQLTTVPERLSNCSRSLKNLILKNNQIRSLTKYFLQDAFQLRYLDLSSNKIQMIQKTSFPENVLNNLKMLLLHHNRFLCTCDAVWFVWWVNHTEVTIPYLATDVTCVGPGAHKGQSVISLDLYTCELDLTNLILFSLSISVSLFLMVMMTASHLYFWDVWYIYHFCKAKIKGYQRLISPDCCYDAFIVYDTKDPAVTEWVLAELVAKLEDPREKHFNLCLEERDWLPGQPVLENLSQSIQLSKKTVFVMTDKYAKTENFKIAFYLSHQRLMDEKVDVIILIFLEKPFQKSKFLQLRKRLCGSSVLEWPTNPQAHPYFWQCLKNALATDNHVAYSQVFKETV
Assay: HEK-Blue hTLR7 SEAP reporter assay
Format: cell-based
Details: 5 μg/mL imiquimod, GBZ 50 μM
Experimental: FIG. 1: Guanabenz inhibits TLR3 and TLR9 activation in mouse Flt3-L DCs and human blood pDCs. A) Sorted bone marrow derived Flt3L-DCs were activated for 6 h with 10 μg/mL poly I:C LMW (TLR3 in DC1) or 1 μM ODN 1585 (TLR9 in pDCs). GBZ was added at 50 μM and inhibited IFN-β and Interleukin-6 (IL-6) production in activated cells. B) hTLR4, hTLR3, hTLR9 and hTLR7 expressed in the reporter HEK-Blue™ cells are inhibited by GBZ. TLR-expressing HEK-Blue™ cells were respectively activated with 100 ng/mL LPS, 10 μg/mL poly I:C LMW, 2.5 μM ODN 2006 or 5 μg/mL imiquimod, respectively. GBZ was added at 50 μM. TLR activity was measured indirectly through SEAP activity as absorbance at 405 nm. […] Protein concentration of IFN-α and TNF-α secreted were measured at the indicated time points or at 16 h. […]
Given the efficiency of GBZ on mouse TLR3 and TLR9, we turned to human TLRs, in order to extend the relevance of our observations. GBZ-mediated inhibition was first evaluated on NF-kB signaling by monitoring secreted alkaline phosphatase (SEAP) reporter levels in HEK-293 cells expressing TLR3, TLR4, TLR7, TLR9 (FIG. 1B). […] The functionality of the TLR9 transduction pathway was next evaluated by using phospho-flow detection of 40S ribosomal protein S6 (rpS6) phosphorylation, a well characterized early signaling event down-stream of TLR activation by LPS or viruses.

For NC(N)=N/N=C/c1c(Cl)cccc1Cl [GBZ, 2-(2,6-dichlorobenzylidene)-hydrazinecarboximidamide], the “TLR7-dependent activation of the SEAP reporter” value was “inhibited”.
